Experiments:
Rattus norvegicus [1] = experiment: Toxicity against immunosuppressed rat pneumocystis model at 33.0 umol/kg/day, po; type: organism-based; conditions: in vivo
Pneumocystis carinii [2] = experiment: Antimicrobial activity against Pneumocystis carinii in immunosuppressed rat assessed as number of cysts/g of lung at 33.0 umol/kg/day, po relative to control; type: functional
Pneumocystis carinii [3] = experiment: Antimicrobial activity against Pneumocystis carinii in immunosuppressed rat assessed as number of cysts/g of lung at 11.0 umol/kg/day, iv relative to control; type: functional
Rattus norvegicus [4] = experiment: Toxicity against immunosuppressed rat pneumocystis model at 11.0 umol/kg/day, iv; type: organism-based; conditions: in vivo
Pneumocystis carinii [5] = experiment: Antimicrobial activity against Pneumocystis carinii in immunosuppressed rat assessed as number of cysts/g of lung at 22.0 umol/kg/day, iv relative to control; type: functional
Rattus norvegicus [6] = experiment: Toxicity against immunosuppressed rat pneumocystis model at 22.0 umol/kg/day, iv; type: organism-based; conditions: in vivo
Pneumocystis carinii [7] = experiment: Antimicrobial activity against Pneumocystis carinii in immunosuppressed rat assessed as number of cysts/g of lung at 13.3 umol/kg/day, iv relative to control; type: functional
Rattus norvegicus [8] = experiment: Toxicity against immunosuppressed rat pneumocystis model at 13.3 umol/kg/day, iv; type: organism-based; conditions: in vivo
Rattus norvegicus [9] = experiment: Toxicity against immunosuppressed rat pneumocystis model at 39.8 umol/kg/day, po; type: organism-based; conditions: in vivo
Pneumocystis carinii [10] = experiment: Antimicrobial activity against Pneumocystis carinii in immunosuppressed rat assessed as number of cysts/g of lung at 39.8 umol/kg/day, po relative to control; type: functional
Pneumocystis carinii [11] = experiment: Antimicrobial activity against Pneumocystis carinii in immunosuppressed rat assessed as number of cysts/g of lung at 10.8 umol/kg/day, iv relative to control; type: functional
Rattus norvegicus [12] = experiment: Toxicity against immunosuppressed rat pneumocystis model at 10.8 umol/kg/day, iv; type: organism-based; conditions: in vivo
Pneumocystis carinii [13] = experiment: Antimicrobial activity against Pneumocystis carinii in immunosuppressed rat assessed as number of cysts/g of lung at 9.4 umol/kg/day, iv relative to control; type: functional

Row | Structure (SMILES) | Activity (Rattus norvegicus [1]) | Activity (Pneumocystis carinii [2]) [%] | Activity (Pneumocystis carinii [5]) [%] | Activity (Rattus norvegicus [6]) | other results
1 | CCOC(=O)/N=C(\NC(C)C)c1ccc(-c2ccc(-c3ccc(/C(=N/C(=O)OCC)NC(C)C)cc3)o2)cc1 | Non-toxic | 51.92 |  |  | Activity (Pneumocystis carinii [3]): 82.21%; Activity (Rattus norvegicus [4]): Non-toxic
2 | O=C(/N=C(\NC1CCCC1)c1ccc(-c2ccc(-c3ccc(/C(=N\C(=O)OCC(Cl)(Cl)Cl)NC4CCCC4)cc3)o2)cc1)OCC(Cl)(Cl)Cl | Non-toxic | 3.7 | 39.84 | Non-toxic | 
3 | N/C(=N\C(=O)OCC(Cl)(Cl)Cl)c1ccc(-c2ccc(-c3ccc(/C(N)=N\C(=O)OCC(Cl)(Cl)Cl)cc3)o2)cc1 | Non-toxic | 5.45 | 1.72 | Non-toxic | 
4 | N=C(N)c1ccc(OCCCCCOc2ccc(C(=N)N)cc2)cc1 [PENTAMIDINE] | Non-toxic | 67.78 | 2.75 |  | 
5 | CONC(=N)c1ccc(-c2ccc(-c3ccc(C(=N)NOC)cc3)o2)cc1 [PAFURAMIDINE] | Non-toxic | 1.21 | 13.99 | Non-toxic | 
6 | N=C(N)c1ccc(-c2ccc(-c3ccc(C(=N)N)cc3)o2)cc1 [FURAMIDINE] |  |  |  |  | Activity (Pneumocystis carinii [7]): 0.86%; Activity (Rattus norvegicus [8]): Non-toxic; Activity (Rattus norvegicus [9]): Non-toxic; Activity (Pneumocystis carinii [10]): 15.67%
7 | CC(C)NC(=N)c1ccc(-c2ccc(-c3ccc(C(=N)NC(C)C)cc3)o2)cc1 | Non-toxic | 78.52 |  |  | Activity (Pneumocystis carinii [11]): 0.26%; Activity (Rattus norvegicus [12]): Non-toxic
8 | N=C(NC1CCCC1)c1ccc(-c2ccc(-c3ccc(C(=N)NC4CCCC4)cc3)o2)cc1 | Non-toxic | 125.3 |  |  | Activity (Pneumocystis carinii [13]): 0.04%
9 | CC(C)N/C(=N\C(=O)OCC(Cl)(Cl)Cl)c1ccc(-c2ccc(-c3ccc(/C(=N\C(=O)OCC(Cl)(Cl)Cl)NC(C)C)cc3)o2)cc1 | Non-toxic | 2.01 | 0.02 | Non-toxic | 

From ChEMBL document CHEMBL1149762, “Carbamate prodrugs of N-alkylfuramidines” (Eur J Med Chem, 2008)
